IC50 and IC90 data for 36 compounds are collected here from ChEMBL document CHEMBL4483862, “Open-source discovery of chemical leads for next-generation chemoprotective antimalarials” (2018).

Some results are limits rather than exact numbers.

In the assay the test system is Plasmodium berghei. Put plainly: Luciferase/luciferin-expressing antifolate-resistant parasites were used to infect a culture of HepG2 cells that were pre-incubated with compounds. Infected hepatocytes emit light due to the luciferase reaction. Assay results are presented as the percent inhibition of light emission compared to control. […]. It counts as functional. The settings on record: sporozoite; for IC90: read-out: LUCIFERASE INFECTION ASSAY - IC90.

[1] abbreviates: read-out: LUCIFERASE INFECTION ASSAY - IC50.

Consider `O=C(Nc1ccc(S(=O)(=O)N2CCCC2)cc1)c1cc([N+](=O)[O-])ccc1Sc1nnnn1-c1ccccc1`, for which the concentration for an effect of 90% (IC90) is over 10 µM. Also, the IC50 (FFLUC_HILL_SLOPE 8.42, FFLUC_R_SQUARED 0.732, read-out: LUCIFERASE INFECTION ASSAY - IC50) is over 10 µM.
As for `Nc1nccc(/C=C/c2c(F)cccc2Cl)n1`, the 90% effect concentration (IC90) is over 13.2 µM. The half-inhibitory concentration (IC50) (HEPG2TOX_HILL_SLOPE 2, HEPG2TOX_R_SQUARED 0.972, PBLUC_HILL_SLOPE 2.11, PBLUC_R_SQUARED 0.172, read-out: LUCIFERASE INFECTION ASSAY - IC50) was 8.94 µM.
As for `Cc1cc(NNC(=O)c2ccccc2Cl)nc2c1c(-c1cccs1)nn2C`, the IC90 is over 8.29 µM. Further, under setting [1], the 50% inhibitory concentration (IC50) was over 8.29 µM.
Turning to `Cc1c(Sc2ccc(F)cc2)c2ccccn2c1/C(=N\S(=O)(=O)c1cccs1)c1ccccc1`, the IC90 was over 10 µM. Further, the IC50 under setting [1] was over 10 µM.
Consider `COc1ccc(CCNc2nc(C)nc3sc(-c4ccccc4)cc23)cc1OC`, for which the concentration for an effect of 90% (IC90) is over 10 µM. In addition, for the setting “HEPG2TOX_HILL_SLOPE 6.76, HEPG2TOX_R_SQUARED 0.162, read-out: LUCIFERASE INFECTION ASSAY - IC50”, the concentration for half-maximal inhibition (IC50) is over 10 µM.
Turning to `CCCCCCCc1ccc(C(=O)Nc2ccc(F)c(Cl)c2)cc1`, the IC90 is over 9.49 µM. In addition, the IC50 (FFLUC_HILL_SLOPE 16.3, FFLUC_R_SQUARED 0.0372, PBLUC_HILL_SLOPE 1.73, PBLUC_R_SQUARED 0.521, read-out: LUCIFERASE INFECTION ASSAY - IC50) worked out at 4.92 µM.
Turning to `Oc1c(C(Nc2ncccn2)c2ccc(F)cc2)ccc2cccnc12` (configuration not stated), the 90% effect concentration (IC90) was 3.55 µM. Also, for the setting “FFLUC_HILL_SLOPE 12.3, FFLUC_R_SQUARED 0.0325, HEPG2TOX_HILL_SLOPE 1.16, HEPG2TOX_R_SQUARED 0.848, PBLUC_HILL_SLOPE 14, PBLUC_R_SQUARED 0.306, read-out: LUCIFERASE INFECTION ASSAY - IC50”, the IC50 was determined as 3.03 µM.
Turning to `CC(C(=O)Nc1ccc(S(N)(=O)=O)cc1)N1CCC(CCc2ccccc2)CC1` (configuration not stated), the IC90 was over 10 µM. The 50% inhibitory concentration (IC50) (HEPG2TOX_HILL_SLOPE 3.11, HEPG2TOX_R_SQUARED 0.733, PBLUC_HILL_SLOPE 2.39, PBLUC_R_SQUARED 0.628, read-out: LUCIFERASE INFECTION ASSAY - IC50) worked out at 5.36 µM.
For the compound `CN(CC(=O)Nc1ccc(-c2nc3ccccc3[nH]2)cc1)S(=O)(=O)c1ccc(Cl)s1`, the IC90 was over 10 µM. Further, the IC50 (HEPG2TOX_HILL_SLOPE 1.06, HEPG2TOX_R_SQUARED 0.764, PBLUC_HILL_SLOPE 1.55, PBLUC_R_SQUARED 0.165, read-out: LUCIFERASE INFECTION ASSAY - IC50) is over 10 µM.
Consider `FC(F)(F)c1cnc(/C=N/Nc2ncc(C(F)(F)F)cc2Cl)c(Cl)c1`, for which the IC90 was 3.13 µM. Further, the IC50 under setting [1] was 2.69 µM.
Turning to `CCCCNC(=O)c1c(NC(=O)COc2ccccc2)nc2ccc(C)cn12`, the 90% effect concentration (IC90) came out at 8.47 µM. For the same compound, under “FFLUC_HILL_SLOPE 32.7, FFLUC_R_SQUARED 0.34, HEPG2TOX_HILL_SLOPE 7.48, HEPG2TOX_R_SQUARED 0.362, PBLUC_HILL_SLOPE 14.2, PBLUC_R_SQUARED 0.182, read-out: LUCIFERASE INFECTION ASSAY - IC50”, the IC50 was determined as 7.25 µM.
On to `CCc1ccccc1Nc1c(Cl)c(C)nc2ncnn12`, for which the IC90 is over 11.5 µM. Further, the IC50 (HEPG2TOX_HILL_SLOPE 1.69, HEPG2TOX_R_SQUARED 0.869, PBLUC_HILL_SLOPE 4.69, PBLUC_R_SQUARED 0.317, read-out: LUCIFERASE INFECTION ASSAY - IC50) came to 7.45 µM.
For `COCc1nn2c3c(nnc2c1-c1ccccc1)C(=O)CC(c1ccccc1)C3` (configuration not stated), the 90% effect concentration (IC90) turned out to be 3.29 µM. For the same compound, the IC50 (FFLUC_HILL_SLOPE 8, FFLUC_R_SQUARED 0.814, HEPG2TOX_HILL_SLOPE 2.3, HEPG2TOX_R_SQUARED 0.367, PBLUC_HILL_SLOPE 4.06, PBLUC_R_SQUARED 0.599, read-out: LUCIFERASE INFECTION ASSAY - IC50) was 1.92 µM.
With `Cc1ccc(-c2cnc(N)c(-c3ccc(C(=O)NCCN(C)C)cc3)c2)cc1`, the 90% effect concentration (IC90) is over 8.81 µM. Besides, the IC50 under setting [1] is over 8.81 µM.
Turning to `CCOc1ccc(S(=O)(=O)N(Cc2nnc(-c3cccs3)o2)c2ccccc2OC)cc1`, the concentration for an effect of 90% (IC90) was over 10 µM. For the setting “HEPG2TOX_HILL_SLOPE 1.67, HEPG2TOX_R_SQUARED 0.357, PBLUC_HILL_SLOPE 2.18, PBLUC_R_SQUARED 0.1, read-out: LUCIFERASE INFECTION ASSAY - IC50”, the concentration for half-maximal inhibition (IC50) came out at 6.59 µM.
With `Cc1nc(-c2ccc(F)cc2)sc1C(=O)N1CCc2sccc2C1`, the IC90 is over 10 µM. The IC50 under setting [1] is over 10 µM.
Turning to `CCOc1ccccc1N/C=C1/C(=O)N(Cc2ccc3c(c2)OCO3)C(=O)c2ccccc21`, the IC90 was over 10 µM. In addition, under setting [1], the half-inhibitory concentration (IC50) was over 10 µM.
Turning to `CCCCOc1ccc(Nc2nc(C(N)c3ccccc3Cl)cs2)nn1` (configuration not stated), the IC90 was 8.44 µM. Besides, the IC50 (PBLUC_HILL_SLOPE 6.47, PBLUC_R_SQUARED 0.485, read-out: LUCIFERASE INFECTION ASSAY - IC50) turned out to be 6.01 µM.
Turning to `O=C(Nc1ccc(Cl)cc1)N1CCCN(Cc2ccc(Br)cc2F)CC1`, the 90% effect concentration (IC90) was over 7.49 µM. Besides, under “PBLUC_HILL_SLOPE 1.86, PBLUC_R_SQUARED 0.575, read-out: LUCIFERASE INFECTION ASSAY - IC50”, the half-inhibitory concentration (IC50) stood at 2.95 µM.
As for `CCCCNC(=O)c1c(NC(=O)c2cccc(Cl)c2Cl)nc2ccc(C)cn12`, the 90% effect concentration (IC90) was found to be 1.27 µM. Moreover, the IC50 (HEPG2TOX_HILL_SLOPE 1.01, HEPG2TOX_R_SQUARED 0.774, PBLUC_HILL_SLOPE 4.09, PBLUC_R_SQUARED 0.588, read-out: LUCIFERASE INFECTION ASSAY - IC50) amounted to 0.743 µM.
In the case of `O=C(O)c1cc(N/N=C(\c2ccncc2)c2ccc([N+](=O)[O-])cc2)cc(C(=O)O)c1`, the concentration for an effect of 90% (IC90) was over 10 µM. Besides, under setting [1], the 50% inhibitory concentration (IC50) is over 10 µM.
In the case of `CCOC(=O)c1cc(Sc2ccccc2NC(=O)Nc2ccc(C)cc2)cc(C(=O)OCC)n1`, the concentration for an effect of 90% (IC90) is over 6.88 µM. Besides, the half-inhibitory concentration (IC50) under setting [1] is over 6.88 µM.
As for `CCOC(=O)c1c(C)[nH]c(N=Nc2cccc(C(F)(F)F)c2)c1C`, the 90% effect concentration (IC90) was over 10 µM. Moreover, the half-maximal inhibitory concentration (IC50) under setting [1] was over 10 µM.
In the case of `CCC(C)CNc1cc(C(=O)Nc2cccc(OC)c2)cc(S(=O)(=O)N2CCCC2)c1` (configuration not stated), the 90% effect concentration (IC90) was over 7.41 µM. For the same compound, the IC50 (HEPG2TOX_HILL_SLOPE 12.2, HEPG2TOX_R_SQUARED 0.774, PBLUC_HILL_SLOPE 2.54, PBLUC_R_SQUARED 0.165, read-out: LUCIFERASE INFECTION ASSAY - IC50) was 5.57 µM.
Regarding `COc1cc(Cl)c(C)cc1-n1c(SCc2nnc(-c3cccs3)o2)nc2ccccc2c1=O`, the concentration for an effect of 90% (IC90) was over 10 µM. For the same compound, the IC50 (FFLUC_HILL_SLOPE 9.81, FFLUC_R_SQUARED 0.743, PBLUC_HILL_SLOPE 8.4, PBLUC_R_SQUARED 0.579, read-out: LUCIFERASE INFECTION ASSAY - IC50) stood at 8.6 µM.
`CC1CCCC(NC(=O)CSc2nnc(O)n2Cc2ccccc2)C1C` (configuration not stated): the IC90 was over 10 µM. For the same compound, under setting [1], the IC50 is over 10 µM.
With `Oc1cccc(-c2cnc3cnc(/C=C/c4ccccc4)cn23)c1`, the 90% effect concentration (IC90) was over 10.5 µM. The IC50 (PBLUC_HILL_SLOPE 3.41, PBLUC_R_SQUARED 0.351, read-out: LUCIFERASE INFECTION ASSAY - IC50) stood at 7.1 µM.
Turning to `COc1cc(C(=O)OCC#N)ccc1OCc1c(C)noc1C`, the 90% effect concentration (IC90) is over 10 µM. The half-maximal inhibitory concentration (IC50) under setting [1] was over 10 µM.
For the compound `O=C(Nc1cc(C(F)(F)F)cc(C(F)(F)F)c1)Nc1cnn(-c2ccccc2)c1C(F)(F)F`, the IC90 came to 2.67 µM. Also, the half-maximal inhibitory concentration (IC50) (HEPG2TOX_HILL_SLOPE 8.4, HEPG2TOX_R_SQUARED 0.935, PBLUC_HILL_SLOPE 10.9, PBLUC_R_SQUARED 0.166, read-out: LUCIFERASE INFECTION ASSAY - IC50) came out at 2.19 µM.
As for `CCOC(=O)c1c(C)[nH]c(C(=O)Nc2ncccc2C)c1C`, the 90% effect concentration (IC90) is over 10 µM. Where the note is “PBLUC_HILL_SLOPE 1.33, PBLUC_R_SQUARED 0.354, read-out: LUCIFERASE INFECTION ASSAY - IC50”, the IC50 was found to be 2.54 µM.
As to `COc1ccc(-c2cnn3ccc(NCc4cccnc4)nc23)cc1OC`, the concentration for an effect of 90% (IC90) was 5.49 µM. Besides, the concentration for half-maximal inhibition (IC50) (HEPG2TOX_HILL_SLOPE 1.45, HEPG2TOX_R_SQUARED 0.956, PBLUC_HILL_SLOPE 2.78, PBLUC_R_SQUARED 0.698, read-out: LUCIFERASE INFECTION ASSAY - IC50) came to 2.49 µM.
As for `OCc1cccc(-c2cnc3ccc(-c4ccccc4)nn23)c1`, the 90% effect concentration (IC90) was 7.66 µM. For the same compound, the concentration for half-maximal inhibition (IC50) (HEPG2TOX_HILL_SLOPE 3.47, HEPG2TOX_R_SQUARED 0.7, PBLUC_HILL_SLOPE 5.19, PBLUC_R_SQUARED 0.0412, read-out: LUCIFERASE INFECTION ASSAY - IC50) turned out to be 5.02 µM.
On to `Cc1csc(NC(=O)c2ccc3[nH]c4c(c3c2)CC(C)CC4)n1` (configuration not stated), for which the IC90 was over 10 µM. For the setting “PBLUC_HILL_SLOPE 21.4, PBLUC_R_SQUARED 0.315, read-out: LUCIFERASE INFECTION ASSAY - IC50”, the half-inhibitory concentration (IC50) was determined as 9.45 µM.
As to `Cc1ccsc1/C=N/Nc1ncc(Cl)cc1Cl`, the IC90 is over 10 µM. Further, the IC50 (FFLUC_HILL_SLOPE 11.7, FFLUC_R_SQUARED 0.18, PBLUC_HILL_SLOPE 22.2, PBLUC_R_SQUARED 0.267, read-out: LUCIFERASE INFECTION ASSAY - IC50) came out at 9.19 µM.
For the compound `CCCn1c(NC(=O)c2ccc3ccccc3n2)nc2ccccc21`, the concentration for an effect of 90% (IC90) worked out at 3.56 µM. Under “PBLUC_HILL_SLOPE 15.7, PBLUC_R_SQUARED 0.527, read-out: LUCIFERASE INFECTION ASSAY - IC50”, the IC50 worked out at 3.1 µM.
Take `CCOc1cc(CN(CC)CC(=O)Nc2c(F)cccc2F)ccc1OCc1cccs1`: the IC90 is over 10 µM. Also, the half-inhibitory concentration (IC50) under setting [1] was over 10 µM.
